Reference: article PMC6941357, “An in vitro toolbox to accelerate anti-malarial drug discovery and development” (Malaria Journal, 2020)

Columns and labels:
[1] = Binding in DMEM with 10% FCS via ultracentrifugation; assay type: in vitro ADME, calf; settings: bovine, pH 7.4
Description: Dulbecco’s Modified Eagle’s Medium (DMEM) containing GlutaMAX-I was purchased from Invitrogen (Thermo Fisher Scientific) and stored at 4 °C. Medium was prepared by adding heat inactivated foetal calf serum (FCS, final 10% v/v), penicillin (final 100 U/mL), streptomycin (final 100 µg/mL) D-glucose (final 4.0 mg/mL) and sodium pyruvate (final 0.1 mg/mL).
An ultracentrifugation method adapted from a previous publication was initially used to assess plasma protein binding and binding in the other media. […] Additional ultracentrifuge tubes containing spiked matrix were maintained at 37 °C, 5% or 10% CO2 or normal atmosphere conditions, with aliquots being taken within 0.5 h of the start and at the end of ultracentrifugation to serve as controls for the assessment of stability and to obtain a measure of the total concentration (Ctotal). Following ultracentrifugation, the pH was checked and an aliquot of protein-free supernate was taken from each ultracentrifuge tube for determination of the unbound concentration (Cunbound).
Total matrix and protein free samples were analysed using a matrix matching approach whereby each sample was mixed in a 1:1 ratio with the opposite blank medium (i.e. blank total matrix or blank protein free buffer). For example, plasma samples were mixed with blank pH 7.4 buffer whereas plasma supernatant samples were mixed with blank plasma. Each of the sample sets were then assayed against a common calibration curve prepared in a 1:1 mixture of total matrix and protein free pH 7.4 buffer. […] The standard deviation for fu was calculated using the propagation of errors approach as described previously. The potential for compound degradation was assessed by comparing the average value for Ctotal at the start and end of the experiment.

[2] = Bidirectional permeability across Caco-2 cell monolayers; settings: human
Description: (§1) Bidirectional permeability was assessed across Caco-2 cell monolayers as described previously. Briefly, permeability experiments were performed using either aqueous transport buffer (pH 7.4 Hanks balanced salt solution containing 20 mM HEPES) or human plasma (Australian Red Cross Blood Service) in both the apical and basolateral chambers. […] The final DMSO concentration in the donor solution was 0.1% v/v.
(§2) Samples from the donor chamber were taken at the start and end of the experiment. […] Donor and acceptor samples were stored frozen at − 80 °C until analysis by LC–MS (Additional file 1: Table S2) with sample preparation as described previously. The mass balance and apparent permeability coefficient (Papp) were calculated as previously described.
(§3) Where human plasma was used as the transport medium, Papp values were calculated as shown above, with correction for the fraction unbound (fu) in the donor solution Cdonorinitial×fu with fu determined at a similar concentration to that used in the transport experiment. The apparent flux of lucifer yellow was based on an endpoint measurement assuming no lag time. The efflux ratio was calculated as the ratio of the mean B–A to A–B Papp values.

[3] = system: human plasma; settings: methods UF, ED, EP or not described per compound, ref [6]–[22] of Additional file 1; cited from earlier work
[4] = Plasma protein binding via rapid equilibrium dialysis (RED), 10% plasma; assay type: in vitro ADME, human; settings: human, 10% pooled plasma (diluted 1:10), pH 7.4, RED, 10% plasma corrected for dilution; for fraction unbound at 6 h: 6 h dialysis; for fraction unbound at 24 h: presaturation of device and 24 h dialysis
Description: Pooled human plasma (n = 3–4 donors) was obtained by centrifugation of blood (collected by the Australian Red Cross Blood Service, Melbourne, Australia or the Volunteer Blood Donor Registry, Clinical Translation Centre, Walter & Eliza Hall Institute of Medical Research, Parkville, Australia), or sourcing pooled plasma directly from commercial sources (Innovative Research Inc, MI) and stored frozen at − 80 °C.
Plasma was diluted 1:10 with pH 7.4 phosphate buffer (prepared by mixing 0.1 M sodium dihydrogen phosphate and 0.1 M disodium hydrogen phosphate (both containing 0.04 M NaCl) to pH 7.4) and spiked with compound to achieve a total measured concentration of ~ 1000–3000 ng/mL. Diluted plasma was vortex mixed briefly and aliquots (n = 3–4) were transferred to RED (Thermo Fisher Scientific, Waltham, MA) units that were placed at 37 °C under ambient atmosphere on a plate shaker. […] At the end of the dialysis period, samples were removed from both the donor and dialysate chambers of the RED units. […] Fraction unbound values were calculated for each individual RED unit and the mean and SD calculated for n = 3–4 replicates.
Briefly, the RED device was exposed for two 30 min periods and one overnight period to fresh solutions of compound prepared in pH 7.4 buffer at approximately 10% of the total dialysis concentration. Following the preincubations, solutions were removed from the RED device and discarded. […] Samples were removed and analysed as described above.
For binding assessments using 10% plasma, the unbound fraction (fu) in neat plasma was calculated using the average values for Ctotal and Cunbound and Eq.

[5] = Blood to plasma partitioning; assay type: in vitro ADME, human; settings: human, whole blood, pH 7.4, human whole blood, 37 °C; read-out: B/P (whole blood to plasma partitioning ratio)
Description: Human whole blood was collected and supplied by the Volunteer Blood Donor Registry (Clinical Translation Centre, Walter & Eliza Hall Institute of Medical Research, Parkville, Australia) and used on the day of collection. The haematocrit (Hct) was determined by centrifugation (13,000×g for 3 min using Clemets® Microhaematocrit centrifuge and Safecap® Plain Self-sealing Mylar wrapped capillary tubes) to ensure it was between 0.40 and 0.48. An aliquot was centrifuged (Heraeus, Multifuge 3 S-R; 4500×g) for 10 min to obtain plasma required for matrix matching purposes as described below.
Two aliquots of the spiked whole blood were transferred to fresh microcentrifuge tubes and maintained at 37 °C/5% CO2 in a humidified incubator. The pH was confirmed to be 7.4 ± 0.1 at the start and end of the incubation. At each time point (30 min and 4 h), one whole blood tube was removed from the incubator and mixed by gentle inversion, after which four replicate blood samples were taken and matrix matched with an equal volume of blank plasma. The remainder of the blood sample was centrifuged (Eppendorf, Mini Spin plus; 6700×g) for 2 min for the collection of 4 replicate plasma samples which were similarly matrix matched with an equal volume of blank whole blood. The 1:1 mixtures of blood/plasma were mixed, snap frozen in dry ice and stored at − 80 °C until analysis by LC–MS (Additional file 1: Table S2) against calibration standards prepared in the same mixed matrix. Any further distribution of compound into RBCs at this stage was irrelevant as the cells were lysed during the sample preparation and the total concentration in the mixed matrix was measured for both the calibration standards and samples.
The apparent whole blood-to-plasma partitioning ratio (B/P) was calculated as the ratio of the average concentration in the blood sample to that in the plasma fraction of the same whole blood sample. A standard deviation (SD) for each B/P value was calculated using the propagation of errors approach as described previously.

[6] = system: Caco-2 cell monolayers; experiment: Bidirectional permeability across Caco-2 cell monolayers; settings: matrix: pH 7.4 buffer
Description: as §1, §2, §3

[7] = Caco-2, A–B Papp, matrix: human plasma, corrected for fu
[8] = Caco-2, pH 7.4, A–B Papp, matrix: pH 7.4 buffer

**Q.** Which fraction unbound at […], 1000 ng/mL ([1]; DMEM with 10% FCS) does the source give for `CC1(C)c2nc(-c3ccc(F)cc3)c(Nc3ccc(F)cc3)n2CCN1C(=O)CN` [KAF156] here?
**A.** The fraction unbound at […], 1000 ng/mL was 0.477 ± 0.032.

**Q.** And the Papp B→A ([2]; Caco-2)?
**A.** Its Papp B→A is 230 ± 17 ×10⁻⁶ cm/s.

**Q.** What about the Papp A→B [2, 7] of the same compound?
**A.** Its Papp A→B is 47 ± 7.6 ×10⁻⁶ cm/s.

**Q.** Which Literature fu [3] does the source give for `CCCCN(CCCC)CC(O)c1cc(Cl)cc2c1-c1ccc(Cl)cc1/C2=C/c1ccc(Cl)cc1` (stereo not shown) [Lumefantrine] here?
**A.** The Literature fu was 0.003.

**Q.** What about the fraction unbound at 6 h [4] of the same compound?
**A.** Its fraction unbound at 6 h is < 0.0001.

**Q.** And the fraction unbound at 24 h [4]?
**A.** Its fraction unbound at 24 h is < 0.0001.

**Q.** What about the blood plasma ratio at 1000 ng/mL [5] of the same compound?
**A.** Its blood plasma ratio at 1000 ng/mL is 0.48 ± 0.09.

**Q.** For `CS(=O)(=O)c1ccc(-c2cnc(N)c(-c3ccc(C(F)(F)F)nc3)c2)cc1` [MMV048], which fraction unbound at 6 h [4] is on record?
**A.** The fraction unbound at 6 h was 0.11 ± 0.007.

**Q.** And the fraction unbound at […], 1000 ng/mL ([1]; DMEM with 10% FCS)?
**A.** The fraction unbound at […], 1000 ng/mL was 0.653 ± 0.06.

**Q.** And the Papp B→A ([2]; Caco-2, pH 7.4)?
**A.** Its Papp B→A is 53 ± 1.9 ×10⁻⁶ cm/s.

**Q.** What about the Papp A→B [2, 8] of the same compound?
**A.** Its Papp A→B is 41 ± 2.1 ×10⁻⁶ cm/s.

**Q.** With `Cc1nc(Nc2ncc(N3CCN(C)[C@H](C)C3)c(Nc3cc(C)n(C)n3)n2)cc(C2CC2)c1F` [MMV253] as the compound, how does the fraction unbound at 24 h [4] read?
**A.** Its fraction unbound at 24 h is 0.017 ± 0.0002.

**Q.** And the blood plasma ratio at 1000 ng/mL [5]?
**A.** Its blood plasma ratio at 1000 ng/mL is 1 ± 0.05.

**Q.** And the Papp B→A ([2]; Caco-2)?
**A.** Its Papp B→A is 150 ± 23 ×10⁻⁶ cm/s.

**Q.** And the efflux ratio ([2]; Caco-2)?
**A.** The efflux ratio was 1.

**Q.** What about the Papp A→B [2, 7] of the same compound?
**A.** The Papp A→B was 150 ± 29 ×10⁻⁶ cm/s.

**Q.** Which Literature fu [3] does the source give for `OC(c1cc(C(F)(F)F)nc2c(C(F)(F)F)cccc12)C1CCCCN1` (stereo not shown) [Mefloquine] here?
**A.** Its Literature fu is 0.02.

**Q.** Which fraction unbound at 6 h [4] does the source give for `CC(C)(N)CNC(=O)C[C@H]1CC[C@]2(CC1)OO[C@]1(O2)C2CC3CC(C2)CC1C3` [OZ277, Arterolane] here?
**A.** The fraction unbound at 6 h was 0.056.

**Q.** What about the Papp B→A ([2]; Caco-2) of the same compound?
**A.** Its Papp B→A is 70 ± 0.38 ×10⁻⁶ cm/s.

**Q.** What about the Papp A→B [2, 7] of the same compound?
**A.** The Papp A→B was 42 ± 2.8 ×10⁻⁶ cm/s.

**Q.** Which Literature fu [3] does the source give for `COc1cc(NC(C)CCCN)c2ncccc2c1` (stereo not shown) [Primaquine] here?
**A.** Its Literature fu is 0.35-0.55.

**Q.** What about the fraction unbound at […], 1000 ng/mL [1] of the same compound?
**A.** The fraction unbound at […], 1000 ng/mL was 0.78 ± 0.025.

**Q.** And the Papp A→B ([2]; Caco-2, pH 7.4)?
**A.** The Papp A→B was 29 ± 4.5 ×10⁻⁶ cm/s.

**Q.** What about the Papp B→A ([2]; Caco-2, pH 7.4) of the same compound?
**A.** The Papp B→A was 34 ± 1.5 ×10⁻⁶ cm/s.

**Q.** What does the source list for `[H]/N=C(\N/C(=N/[H])Nc1ccc(Cl)cc1)NC(C)C` [Proguanil]?
**A.** Literature fu [3]: 0.25; Papp B→A ([2]; Caco-2, pH 7.4): 7.9 ± 0.51 ×10⁻⁶ cm/s; Papp A→B [2, 8]: < 5 ×10⁻⁶ cm/s; A–B Papp [6]: 3.5 ± 0.75 10^−6 cm/s

**Q.** With `CCc1nc(N)nc(N)c1-c1ccc(Cl)cc1` [Pyrimethamine] as the compound, how does the Literature fu [3] read?
**A.** Its Literature fu is 0.088.

**Q.** What about the fraction unbound at 6 h [4] of the same compound?
**A.** Its fraction unbound at 6 h is 0.095 ± 0.001.

**Q.** And the fraction unbound at […], 1000 ng/mL ([1]; DMEM with 10% FCS)?
**A.** Its fraction unbound at […], 1000 ng/mL is 0.48 ± 0.034.

**Q.** And the Papp A→B ([2]; Caco-2, pH 7.4)?
**A.** The Papp A→B was 60 ± 5.6 ×10⁻⁶ cm/s.

**Q.** And the Papp B→A ([2]; Caco-2, pH 7.4)?
**A.** Its Papp B→A is 59 ± 2.9 ×10⁻⁶ cm/s.

**Q.** For `COc1ccc2nc3cc(Cl)ccc3c(Nc3cc(CN4CCCC4)c(O)c(CN4CCCC4)c3)c2n1` [Pyronaridine], which Literature fu [3] is on record?
**A.** The Literature fu was < 0.35.

**Q.** What about the fraction unbound at 6 h [4] of the same compound?
**A.** The fraction unbound at 6 h was 0.09 ± 0.012.

**Q.** What about the blood plasma ratio at 1000 ng/mL [5] of the same compound?
**A.** The blood plasma ratio at 1000 ng/mL was 9 ± 0.83.

**Q.** And the Papp B→A ([2]; Caco-2)?
**A.** The Papp B→A was 41 ± 3 ×10⁻⁶ cm/s.

**Q.** What about the efflux ratio ([2]; Caco-2) of the same compound?
**A.** The efflux ratio was 2.6.

**Q.** What about the Papp A→B [2, 7] of the same compound?
**A.** Its Papp A→B is 16 ± 2.2 ×10⁻⁶ cm/s.

**Q.** Which fraction unbound at 6 h [4] does the source give for `N#Cc1cc(NC(=O)[C@H]2c3ccccc3C(=O)N(CC(F)(F)F)[C@@H]2c2cccnc2)ccc1F` [SJ733] here?
**A.** Its fraction unbound at 6 h is 0.1.

**Q.** What about the fraction unbound at 24 h [4] of the same compound?
**A.** Its fraction unbound at 24 h is 0.085 ± 0.012.

**Q.** And the Papp B→A ([2]; Caco-2, pH 7.4)?
**A.** Its Papp B→A is 50 ± 2 ×10⁻⁶ cm/s.

**Q.** And the Papp A→B [2, 8]?
**A.** The Papp A→B was 14 ×10⁻⁶ cm/s.

**Q.** What about the “A–B Papp” value [6] of the same compound?
**A.** The value was 13.4 10^−6 cm/s.

**Q.** What does the source list for `COc1ncnc(NS(=O)(=O)c2ccc(N)cc2)c1OC` [Sulfadoxine]?
**A.** Literature fu [3]: 0.05-0.1; fraction unbound at 6 h [4]: 0.025; fraction unbound at […], 1000 ng/mL ([1]; DMEM with 10% FCS): 0.86 ± 0.044; Papp B→A ([2]; Caco-2, pH 7.4): 23 ± 2.8 ×10⁻⁶ cm/s; Papp A→B [2, 8]: 15 ± 2.5 ×10⁻⁶ cm/s
